The structures appear in SMILES notation.

The experiment is described as follows: Inhibition of Enterococcus faecium AAC(6')Ii.
`CC(C)(COP(=O)(O)OP(=O)(O)OC[C@H]1O[C@@H](n2cnc3c(N)ncnc32)[C@H](O)[C@@H]1OP(=O)(O)O)[C@@H](O)C(=O)NCCC(=O)NCCSCC(=O)NC[C@H]1O[C@H](O[C@H]2[C@H](O)[C@@H](O[C@H]3O[C@H](CO)[C@@H](O)[C@H](N)[C@H]3O)[C@H](N)C[C@@H]2N)[C@H](O)[C@@H](O)[C@@H]1O` registered an inhibition constant Ki of 0.11 µM. As for `CC(C)(COP(=O)(O)OP(=O)(O)OC[C@H]1O[C@@H](n2cnc3c(N)ncnc32)[C@H](O)[C@@H]1OP(=O)(O)O)[C@@H](O)C(=O)NCCC(=O)NCCSCCCCC(=O)NC[C@H]1O[C@H](O[C@H]2[C@H](O)[C@@H](O)[C@H](N)C[C@@H]2N)[C@H](N)[C@@H](O)[C@@H]1O` [[(2R,3S,4R,5R)-5-(6-amino-9H-purin-9-yl)-4-hydroxy-3-(phosphonatooxy)oxolan-2-yl]methyl {[(3R)-3-({2-[(2-{[4-({[(2R,3S,4R,5R,6R)-5-amino-6-{[(1R,2R,3S,4R,6S)-4,6-diamino-2,3-dihydroxycyclohexyl]oxy}-3,4-dihydroxyoxan-2-yl]methyl}carbamoyl)butyl]sulfanyl}ethyl)carbamoyl]ethyl}carbamoyl)-3-hydroxy-2,2-dimethylpropylphosphonato]oxy}phosphonate], the figure is 8 µM; as for `CC(C)(COP(=O)(O)OP(=O)(O)OC[C@H]1O[C@@H](n2cnc3c(N)ncnc32)[C@H](O)[C@@H]1OP(=O)(O)O)[C@@H](O)C(=O)NCCC(=O)NCCSCC(=O)NC[C@H]1O[C@H](O[C@H]2[C@H](O)[C@@H](O)[C@H](N)C[C@@H]2N)[C@H](N)[C@@H](O)[C@@H]1O` [[(2R,3S,4R,5R)-5-(6-amino-9H-purin-9-yl)-4-hydroxy-3-(phosphonatooxy)oxolan-2-yl]methyl {[(3R)-3-({2-[(2-{[({[(2R,3S,4R,5R,6R)-5-amino-6-{[(1R,2R,3S,4R,6S)-4,6-diamino-2,3-dihydroxycyclohexyl]oxy}-3,4-dihydroxyoxan-2-yl]methyl}carbamoyl)methyl]sulfanyl}ethyl)carbamoyl]ethyl}carbamoyl)-3-hydroxy-2,2-dimethylpropylphosphonato]oxy}phosphonate], 0.076 µM. As for `CC(C)(COP(=O)(O)OP(=O)(O)OC[C@H]1O[C@@H](n2cnc3c(N)ncnc32)[C@H](O)[C@@H]1OP(=O)(O)O)[C@@H](O)C(=O)NCCC(=O)NCCSCCC(=O)NC[C@H]1O[C@H](O[C@H]2[C@H](O)[C@@H](O)[C@H](N)C[C@@H]2N)[C@H](N)[C@@H](O)[C@@H]1O` [truncated aminoglycoside-coenzyme A bisubstrate analogue 1b], the figure is 0.043 µM. With `CC(C)(COP(=O)(O)OP(=O)(O)OC[C@H]1O[C@@H](n2cnc3c(N)ncnc32)[C@H](O)[C@@H]1OP(=O)(O)O)[C@@H](O)C(=O)NCCC(=O)NCCSCCCC(=O)NC[C@H]1O[C@H](O[C@H]2[C@H](O)[C@@H](O)[C@H](N)C[C@@H]2N)[C@H](N)[C@@H](O)[C@@H]1O` [truncated aminoglycoside-coenzyme A bisubstrate analogue 1c] the figure was 0.161 µM. `CC(C)(COP(=O)(O)OP(=O)(O)OC[C@H]1O[C@@H](n2cnc3c(N)ncnc32)[C@H](O)[C@@H]1OP(=O)(O)O)[C@@H](O)C(=O)NCCC(=O)NCCSCC(=O)NC[C@H]1O[C@H](O[C@H]2[C@H](O)[C@@H](O[C@H]3O[C@H](CO)[C@@H](O)[C@H](O)[C@H]3O[C@@H]3O[C@H](CO)[C@@H](O)[C@H]3O)[C@H](N)C[C@@H]2N)[C@H](N)[C@@H](O)[C@@H]1O` [truncated aminoglycoside-coenzyme A bisubstrate analogue 3]: affinity was put at a Ki of 0.119 µM.

(Values after BindingDB's records for doi:10.1021/jm060732n (Mcgill University, 2006).)
